Results on one compound are retold here after ChEMBL document CHEMBL4130461, “New chemotype of selective and potent inhibitors of human delta 24-dehydrocholesterol reductase” (Eur J Med Chem, 2017).

In data set [1] the test system is HL-60. Kind of data set: Induction of sterol accumulation in human HL60 cells assessed as desmosterol accumulation at 1 uM incubated for 24 hrs by GC-MS analysis. It is filed as functional, cell-based.
Data set [2] relates to HL-60. Kind of data set: Induction of sterol accumulation in human HL60 cells assessed as desmosterol accumulation at 50 uM incubated for 24 hrs by GC-MS analysis. Type of data set: functional, cell-based.
Data set [3] has as its system Mus musculus. The experiment in a line: Liver toxicity in C57BL/6 mouse assessed as effect on ALT levels at 500 ug/day, iv dosed daily for 5 days. It is filed as organism-based. As to conditions: in vivo, 120 h.
In data set [4] the test system is Mus musculus. Kind of data set: Liver toxicity in C57BL/6 mouse assessed as effect on AST levels at 500 ug/day, iv dosed daily for 5 days. It is filed as organism-based. As to conditions: in vivo, 120 h.
The test system of data set [5] is Mus musculus. The experiment in a line: Acute liver toxicity in C57BL/6 mouse at 500 ug/day, iv dosed daily for 5 days. The note with it: in vivo, 120 h. It is filed as organism-based.
For data set [6], the system named is Mus musculus. Kind of data set: Reduction in cholesterol level in C57BL/6 mouse blood at 500 ug/day, iv dosed daily for 5 days byGC-MS analysis. Type of data set: functional, organism-based.
In data set [7] the test system is Mus musculus. Kind of data set: Induction of desmosterol accumulation in C57BL/6 mouse blood at 500 ug/day, iv dosed daily for 5 days byGC-MS analysis. Type of data set: functional.
Data set [8] relates to HL-60. The experiment in a line: Intracellular drug accumulation in human HL60 cells at 10 uM incubated for 24 hrs by GC-MS analysis. It is filed as ADME, cell-based. The note with it: hl-60, 24 h.
Data set [9] deals with HL-60. The experiment in a line: Extracellular drug accumulation in human HL60 cells at 10 uM incubated for 24 hrs by GC-MS analysis. Type of data set: ADME, cell-based. The note with it: hl-60, 24 h.
Data set [10] in a line: Drug metabolism in human HL60 cells at 10 uM incubated for 24 hrs by GC-MS analysis. It is filed as ADME, cell-based. As to conditions: hl-60, 24 h.
In data set [11] the test system is HL-60. Kind of data set: cells. The note with it: Homo sapiens.
Description: Cytotoxicity in human HL60 cells by MTT assay

Calls of active or inactive are those of the source. No cut-off for these calls is given here. Some results are limits rather than exact numbers.

Take `CC(=O)O[C@H]1CC[C@@]2(C)[C@@H](CC=C3[C@@H]2CC[C@]2(C)[C@@H]([C@H](C)COC=O)CC[C@@H]32)C1`: the outcome with HL-60 [1], in the data set on HL-60 [2] and in the data set with Mus musculus [6] was Active. Also, the Activity entry with Mus musculus [3] is “Non-Toxic”; with Mus musculus [4], “Non-Toxic”; in the data set with Mus musculus [5], “Non-Toxic”; in the data set with Mus musculus [7] it was 1 µg/mL. Also, the Drug uptake in the data set on HL-60 [8] worked out at 1 µM; with HL-60 [9] it was 2 µM. Also, the Drug metabolism result in data set [10] is reported as “Metabolite_Notdetected”. The compound further yielded an IC50 with HL-60 [11] of over 50 µM.

By IC50 is commonly meant the concentration needed to halve the response being measured. Low readings indicate greater potency, high ones weaker potency.
